How the values were obtained:
[1] = tested on: HASMC; assay: NO-stimulated HASMC adhesion on type I collagen; type: cell-based, human; conditions: DEA/NO 10 μM, 1 h
Description: Cell adhesion was carried out in 96-well culture plates. After pre-coating wells with type I collagen (3 μg/ml in DPBS) harvested cells were plated at a density of 1×10^4 cells/well in medium plus 0.1% BSA and treatment agents and incubated in 5% CO2 for 1 h. Wells were washed with PBS and cells fixed with 1% glutaraldehyde for 10 min., washed and stained with 1% crystal violet for 20 min. Excess stain was rinsed away, adherent cells treated with 10% acetic acid, and plates read at 570 nm.

[2] = tested on: HASMC; assay: HASMC proliferation (MTS); type: cell-based, human; conditions: DETA/NO 10 μM, 72 h
Description: Proliferation of vascular cells was measured with a non-radioactive colorimetric assay (CellTiter 96, Promega, Madison, Wis.). Briefly, to each well of a 96-well culture plate (Nunc, Denmark) 5×10^3 cells were suspended in 100 μl of culture medium with indicated treatments and incubated for 72 hours at 37° C. in a 5% CO2 atmosphere. Following incubation 20 μl of tetrazolium compound/solubilization agent was added and incubation continued for 4 hours under the same conditions. The plate was then read on a MR580 Microelisa Auto Reader (Dynatech) at a wavelength of 490 nm. Appropriate zero time controls were run for all assays and the optical density readings obtained then subtracted from those obtained at 72 hours.

[3] = tested on: HASMC; assay: Intracellular cGMP in HASMC; type: cell-based, human; conditions: DEA/NO 10 μM, 5 minutes
[4] = tested on: murine ASMC (WT, CD36 null, CD47 null); assay: Intracellular cGMP in murine ASMC; type: cell-based, mouse
Method in brief: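 Aortic smooth muscle cells from wild-type C57Bl/6, CD36-null or CD47-null mice, passage 1–4, plated overnight in full growth medium. Weaned to SM-GM + 0.1% BSA before treatment with NO donor and other agents. Intracellular cGMP measured by enzyme immunoassay.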

CBD: recombinant C-terminal cell-binding domain (G module) of TSP1
NO-stimulated HASMC adhesion on type I collagen [1]: slightly less active but also dose-dependently inhibited | NO-stimulated HASMC proliferation [2]: inhibited NO-stimulated HASMC proliferation | NO-stimulated cGMP levels in HASMC [3]: equipotent dose-dependent inhibitors | NO-stimulated cGMP ([4]; CD36 null MASMC): completely inhibited | NO-stimulated cGMP ([4]; CD47 null MASMC): did not significantly inhibit
